Results taken from ChEMBL document CHEMBL1156679, “Inhibition of immune complex-mediated neutrophil oxidative metabolism: a pharmacophore model for 3-phenylcoumarin derivatives using GRIND-based 3D-QSAR and 2D-QSAR procedures” (Eur J Med Chem, 2008).

Legend:
Neutrophil [1] = test: Inhibition of immune complex-stimulated neutrophil oxidative metabolism in New Zealand white rabbit neutrophils assessed as ROS generation at 50 uM after 30 mins by lucigenin enhanced chemiluminescence assay; type: functional; conditions: Oryctolagus cuniculus, 0.5 h
Neutrophil [2] = test: Inhibition of immune complex-stimulated neutrophil oxidative metabolism in New Zealand white rabbit neutrophils assessed as ROS generation at 50 uM after 30 mins by luminol enhanced chemiluminescence assay; type: functional; conditions: Oryctolagus cuniculus, 0.5 h
Neutrophil [3] = test: Inhibition of immune complex-stimulated neutrophil oxidative metabolism in New Zealand white rabbit neutrophils assessed as ROS generation after 30 mins by lucigenin enhanced chemiluminescence assay; type: functional, cell-based; conditions: Oryctolagus cuniculus, 0.5 h
Neutrophil [4] = test: Inhibition of immune complex-stimulated neutrophil oxidative metabolism in New Zealand white rabbit neutrophils assessed as ROS generation after 30 mins by luminol enhanced chemiluminescence assay; type: functional, cell-based; conditions: Oryctolagus cuniculus, 0.5 h
[5] = Cytotoxicity against New Zealand white rabbit neutrophils assessed as cell viability at 50 uM after 30 mins by trypan blue exclusion test; type: cell-based, Oryctolagus cuniculus, Neutrophil; conditions: read-out: Activity
[6] = Cytotoxicity against New Zealand white rabbit neutrophils assessed as LDH release at 50 uM after 30 mins by spectrophotometry; type: cell-based, Oryctolagus cuniculus; conditions: neutrophil, 0.5 h

SMILES	IC50 (Neutrophil [3]; read-out: IC50) [µM]	IC50 (Neutrophil [3]; read-out: pIC50 (converted)) [µM]	IC50 (Neutrophil [4]; read-out: IC50) [µM]	IC50 (Neutrophil [4]; read-out: pIC50 (converted)) [µM]	inhibition at 50 µM (Neutrophil [1]) [%]	inhibition at 50 µM (Neutrophil [2]) [%]	viability at 0.5 h, 50 µM [5] [%]	Activity [6] [%]
O=c1oc2ccccc2cc1-c1ccccc1	> 50		> 50		27.9	9	90.3	17.1
O=c1oc2ccc(O)cc2cc1-c1ccccc1	8	7.94	> 50		83.5	21.8	92.3	10.7
COC(=O)Oc1cccc(-c2cc3cc(OC(=O)OC)ccc3oc2=O)c1	6.9	6.92	21.7	21.9	82.1	66.3	94	9.3
O=c1oc2ccccc2cc1-c1ccc2c(c1)OCO2	> 50		> 50		5.7	10.1	96	11.9
O=c1oc2ccc(O)cc2cc1-c1ccc2c(c1)OCO2	5.6	5.62	> 50		83.5	23.2	93.8	9
O=c1c(O)c(-c2ccc(O)c(O)c2)oc2cc(O)cc(O)c12 [QUERCETIN]	4.7		2.4		99.9	99.9	93	10.9
COC(=O)Oc1ccc2oc(=O)c(-c3ccc4c(c3)OCO4)cc2c1	5.4	5.37	> 50		68	13.7	95.5	11.4
COC(=O)Oc1ccc2oc(=O)c(-c3ccccc3)cc2c1	7.4	7.41	31.2	30.9	80.5	50.5	93.8	11.3
O=c1oc2cc(O)c(O)cc2cc1-c1ccc(O)c(O)c1	5.2	5.25	13.4	13.5	94.9	92.4	92	10.5
COC(=O)Oc1ccc2cc(-c3ccc4c(c3)OCO4)c(=O)oc2c1	7.3	≥ 7.24	> 50		67.1	7.9	94.3	13.8
O=c1oc2cc(O)ccc2cc1-c1ccc2c(c1)OCO2	8.6	8.51	> 50		79.4	17.5	94.3	11.1

The remaining compounds from weak to strong by IC50 (Neutrophil [3]; read-out: IC50), led by results:

IC50 (Neutrophil [3]; read-out: IC50) [µM]	IC50 (Neutrophil [3]; read-out: pIC50 (converted)) [µM]	IC50 (Neutrophil [4]; read-out: IC50) [µM]	IC50 (Neutrophil [4]; read-out: pIC50 (converted)) [µM]	SMILES	inhibition at 50 µM (Neutrophil [1]) [%]	inhibition at 50 µM (Neutrophil [2]) [%]	viability at 0.5 h, 50 µM [5] [%]	Activity [6] [%]
5.2	5.25	> 50		O=c1oc2ccc(O)cc2cc1-c1cccc(O)c1	94.1	31.7	93.8	11.2
4.4	4.47	4.9	4.9	O=c1oc2ccc(O)cc2cc1-c1ccc(O)c(O)c1	98.7	99.2	92.8	11.9
4.3	4.37	29.6	29.5	O=c1oc2ccc(O)cc2cc1-c1ccc(O)cc1	95.7	69.8	89.5	18.3
4	3.98	27.4	27.5	COC(=O)Oc1ccc(-c2cc3cc(OC(=O)OC)ccc3oc2=O)cc1	92.5	60.3	92.5	11.6
2.6	2.57	2.9	2.88	COC(=O)Oc1ccc2oc(=O)c(-c3ccccc3OC(=O)OC)cc2c1	96.5	94.6	90.3	14.6
2.5	2.51	2.8	2.82	O=c1oc2ccc(O)cc2cc1-c1ccccc1O	99.9	99	94.8	9.8
1.8	1.78	2	2.04	COC(=O)Oc1ccc2oc(=O)c(-c3ccc(OC(=O)OC)c(OC(=O)OC)c3)cc2c1	97.5	92.3	93.3	9.3
0.7	0.692	0.7	0.661	COC(=O)Oc1cc2cc(-c3ccc4c(c3)OCO4)c(=O)oc2cc1OC(=O)OC	99	99.4	95	11.9
0.7	0.724	0.7		O=c1oc2cc(O)c(O)cc2cc1-c1ccc2c(c1)OCO2	99.6	99.8	93.2	15.3
0.4	0.363	0.4	0.389	COC(=O)Oc1ccc(-c2cc3cc(OC(=O)OC)c(OC(=O)OC)cc3oc2=O)cc1OC(=O)OC	99.9	99.9	88.8	20.7
